Assay results reported in patent publication US6500816B1, “Remedies for photochemotherapy” (Nippon Kayaku Kabushiki Kaisha, priority 1998, dated 2002).

Assays:
[1] = background art statement; cited from earlier work
[2] = Maximum absorption wavelength of the compounds; assay type: physicochemical
Text: Some representative examples of the compounds utilizable as the photochemotherapeutic agent according to the present invention are shown below.

Maximum absorption wavelength (λmax) [2] [nm]	Compound	maximum absorption wavelength [1] [nm]
	dihematoporphyrin [Photofrin]	363
1045	CC1CC(C=CC=C/C=C2\CC(C)Cc3c(-c4ccccc4)cc(-c4ccccc4)[o+]c32)=C2OC(c3ccccc3)=CC(c3ccccc3)=C2C1 (stereo not drawn) [Polymethine type 4]	
820	CCN(CC)c1ccc(C(=CC=CC(=C2C=CC(=[N+](CC)CC)C=C2)c2ccc(N(CC)CC)cc2)c2ccc(N(CC)CC)cc2)cc1 [Polymethine type 1]	
